The text below walks through data of patent US4638003A, “1-(4-alkylthiophenyl)-2-(substituted or unsubstituted piperazine-1-yl)-1,3-propanediol, pharmaceutical compositions containing them useful as antiarrhythmic and vasodilating agents” (Zambon S.p.A., priority 1983, dated 1987).

Series [1] deals with isolated rabbit aorta (vascular smooth muscle). In words: calcium antagonist activity on isolated rabbit aorta (CaCl2-induced contraction).
Source text: Isolated rabbit aorta: ratio between the CaCl2 con-
In series [2] the test system is anesthetized rat. In words: antiarrhythmic activity against calcium chloride-induced arrhythmia after intravenous administration in anesthetized rat. It counts as in vivo. Particulars: for ED50: Rattus norvegicus, iv, ten minutes before calcium chloride, read-out: ED50 (dose effective to antagonize the appearance of arrythmia in the 50% of the treated animals). As for the experimental part:
The evaluation of the antiarrhythmic activity has been performed in the anesthetized rat with the method of M. Malinov et al. (Am. J. Physiol. 172, 743-746, 1953).
Arrythmia has been induced by administering (0.25 ml in 30 seconds) a saline solution containing 15% of calcium chloride into the jugular vein.
In these experimental conditions arrythmia occurs in the 90% of the animals. The compounds have been administered intravenously ten minutes before calcium chloride. The antiarrythmic activity has been referred as dose effective to antagonize the appearance of arrythmia in the 50% of the treated animals (ED50).

The test system of series [3] is anesthetized rat. In words: coronary dilating activity (coronary spasm induced by Vasopressin, T wave in E.C.G.) in anesthetized rat. It counts as in vivo. Particulars: T wave restored in 50% of the animals within 2 minutes; for ED50: Rattus norvegicus, iv, 2 min. From the text:
The evaluation of the coronary dilating activity has been performed with the method of O. Nieschultz, et al. (Arzneim. Forsch. 5, 680, 1955).

The next series is described as follows: in vivo. It counts as in vivo. Particulars: rat, in vivo, iv, ratio between the dose inducing bradycardia 20 and the effective anti-anginal dose 50; read-out: Therapeutic index. An excerpt: (§1) Furthermore, tolerability has been tested in the same experimental conditions in which it has been performed the pharmacological study in vivo.
(§2) Tolerability has been referred as effective dose to reduce heart rate of 20%. Therapeutic index has been determined as ratio between the dose inducing bradycardia 20 and the effective anti-anginal dose 50.

The subject of series [4] is anesthetized rat. Put plainly: in vivo. It counts as in vivo. Particulars: for Tolerability: Heart rate (-20%): i.v., compounds solubilized in 40% glyceril formal; for Therapeutic index: ratio between the dose inducing bradycardia 20 and the effective anti-anginal dose 50.
Source text: as §1, §2

Setting [5] is: concentration in perfused liquid 10^-5 M.
Setting [6] is: concentration in perfused liquid 10^-6 M.
Where [7] appears, read: read-out: Coronary dilating activity ED50, i.v. 60 seconds after Vasopressin.
The mark [8] stands for this setting: i.v. 60 seconds after Vasopressin, read-out: Coronary dilating activity ED50.
Where [9] appears, read: i.v. 60 seconds after Vasopressin.

Structures are written as SMILES. Structures can show the parent of a compound that is named as a salt.

For orientation: ED50 means the midpoint of the dose-response relation. For the compound `CSc1ccc([C@H](O)[C@H](CO)NCCC(c2ccccc2)c2ccccc2)cc1` [Z. 1382, (1S,2S)-1-(4-methylthiophenyl)-2-(3,3-diphenylpropylamino)-1,3-propanediol acid maleate], the results for the “ratio between the CaCl2 concentration producing the 50% contraction in presence or in absence of various compounds” value in series [1] (setting [5]) and in series [1] (setting [6]) were 255 and 20, respectively. The ED50 in the series with anesthetized rat [2] came to 19 µmol/kg; in the series on anesthetized rat [3] (setting [7]), 0.00084 µmol/kg. For the same compound, the “number of protected rats/total number” value with anesthetized rat [2] (dose 7.6 μmols/Kg i.v.) was 1/8; with anesthetized rat [2] (dose 13.4 μmols/Kg i.v.) it was 4/8; with anesthetized rat [2] (dose 20 μmols/Kg i.v.) it was 3/8; with anesthetized rat [2] (dose 27 μmols/Kg i.v.), 5/8. Also, in “in vivo”, the selectivity ratio was found to be 20. In addition, in the series on anesthetized rat [4], the “Tolerability: Heart rate (-20%)” value is on record as 17 nmols/kg.

On to `COC(=O)C1=C(C)NC(C)=C(C(=O)OC)C1c1ccccc1[N+](=O)[O-]` [Nifedipine, reference compound], for which, in the series with anesthetized rat [3] (setting [8]), the ED50 was determined as 0.00057 µmol/kg.

Consider `CSc1ccc([C@H](O)[C@H](CO)NC(C)COc2ccccc2)cc1` (some centres unmarked) [Z. 1393], for which the ED50 in the series on anesthetized rat [3] (setting [7]) came out at 0.0038 µmol/kg. For the same compound, in the series “in vivo”, the selectivity ratio is 9. Besides, the “Tolerability: Heart rate (-20%)” value in the series on anesthetized rat [4] is listed as 35 nmols/kg.

`CSc1ccc([C@H](O)[C@H](CO)NCC(C)c2ccccc2)cc1.Cl` (stereo partly drawn) [Z. 1409, (1S,2S)-1-(4-methylthiophenyl)-2-(2-phenylpropylamino)-1,3-propanediol hydrochloride]: the results for the “ratio between the CaCl2 concentration producing the 50% contraction in presence or in absence of various compounds” value in series [1] (setting [5]) and in series [1] (setting [6]) were 12 and 4, respectively. In addition, the values for the ED50 with anesthetized rat [2] and in the series with anesthetized rat [3] (setting [7]) were 43 µmol/kg and 0.00084 µmol/kg, respectively. Besides, the “number of protected rats/total number” value is 0/8 in the series with anesthetized rat [2] (dose 8 μmols/Kg i.v.), 2/8 in the series with anesthetized rat [2] (dose 16 μmols/Kg i.v.), 3/8 in the series with anesthetized rat [2] (dose 24 μmols/Kg i.v.) and 5/8 with anesthetized rat [2] (dose 48 μmols/Kg i.v.). Also, in “in vivo”, the selectivity ratio was 87. Besides, the “Tolerability: Heart rate (-20%)” value with anesthetized rat [4] is 73 nmols/kg.

In the case of `CSc1ccc([C@H](O)[C@H](CO)NC(C)COc2ccccc2)cc1` (some centres unmarked) [Z. 1394], the “ratio between the CaCl2 concentration producing the 50% contraction in presence or in absence of various compounds” value came to 7 in series [1] (setting [5]) and 3 in series [1] (setting [6]).

Take `CSc1ccc([C@@H](O)[C@@H](CO)NC(C)COc2ccccc2)cc1` (some centres unmarked) [Z. 1408]: the median effective dose (ED50) with anesthetized rat [2] stood at 35 µmol/kg. Further, the “number of protected rats/total number” value in the series on anesthetized rat [2] (dose 16 μmols/Kg i.v.) is on record as 1/8; in the series with anesthetized rat [2] (dose 32 μmols/Kg i.v.) it was 4/8; in the series on anesthetized rat [2] (dose 56 μmols/Kg i.v.), 6/8. In addition, the “Coronary dilating activity ED50” value in the series with anesthetized rat [3] (setting [9]) is on record as 3.7 nmols/kg/i.v. For the same compound, the “Tolerability: Heart rate (-20%)” value in the series on anesthetized rat [4] came out at 76 nmols/kg. In the series with anesthetized rat [4], the Therapeutic index turned out to be 21.

`CSc1ccc([C@H](O)[C@H](CO)N2CCN(C(c3ccccc3)c3ccccc3)CC2)cc1` [Z. 1439]: the “ratio between the CaCl2 concentration producing the 50% contraction in presence or in absence of various compounds” value in series [1] (setting [5]) amounted to 24; in series [1] (setting [6]), 4. Besides, the ED50 in the series with anesthetized rat [3] (setting [7]) worked out at 0.0033 µmol/kg. For the same compound, the selectivity ratio in the series “in vivo” came to 7. For the same compound, in the series on anesthetized rat [4], the “Tolerability: Heart rate (-20%)” value is given as 23 nmols/kg.

For `CSc1ccc([C@H](O)[C@H](CO)NC(C)CCc2ccccc2)cc1.Cl` (relative stereo) [Z. 1411, (1S,2S)-1-(4-methylthiophenyl)-2-(1-methyl-3-phenylpropylamino)-1,3-propanediol hydrochloride], the “ratio between the CaCl2 concentration producing the 50% contraction in presence or in absence of various compounds” value in series [1] (setting [5]) was found to be 15; in series [1] (setting [6]), 10. For the same compound, the ED50 in the series with anesthetized rat [2] amounted to 13 µmol/kg; in the series on anesthetized rat [3] (setting [7]) it was 0.001 µmol/kg. The “number of protected rats/total number” value in the series on anesthetized rat [2] (dose 8 μmols/Kg i.v.) is 0/8; in the series with anesthetized rat [2] (dose 12 μmols/Kg i.v.) it was 4/8; with anesthetized rat [2] (dose 16 μmols/Kg i.v.), 6/8. Further, in “in vivo”, the selectivity ratio is 44. In the series with anesthetized rat [4], the “Tolerability: Heart rate (-20%)” value was 44 nmols/kg.

With `CSc1ccc([C@H](O)[C@H](CO)NC(C)c2ccccc2)cc1` (relative stereo) [Z. 1413, (1S,2S,1'S*)-1-(4-methylthiophenyl)-2-(1-methylbenzylamino)-1,3-propanediol], the “Coronary dilating activity ED50” value in the series with anesthetized rat [3] (setting [9]) amounted to 4.5 nmols/kg/i.v. Also, in the series with anesthetized rat [4], the “Tolerability: Heart rate (-20%)” value is 230 nmols/kg and the Therapeutic index is on record as 51.

For `CSc1ccc([C@@H](O)[C@@H](CO)NC(C)COc2ccccc2)cc1` (some centres unmarked) [Z. 1407], the ED50 in the series with anesthetized rat [3] (setting [7]) was found to be 0.0032 µmol/kg. Besides, the selectivity ratio in “in vivo” is 17. Further, the “Tolerability: Heart rate (-20%)” value in the series with anesthetized rat [4] is 53 nmols/kg.

In the case of `CSc1ccc([C@@H](O)[C@H](CO)NCCC(c2ccccc2)c2ccccc2)cc1` [Z. 1373], the figures for the “ratio between the CaCl2 concentration producing the 50% contraction in presence or in absence of various compounds” value in series [1] (setting [5]) and in series [1] (setting [6]) were 86 and 9, respectively. For the same compound, the ED50 in the series on anesthetized rat [3] (setting [7]) was found to be 0.0034 µmol/kg. For the same compound, in the series “in vivo”, the selectivity ratio worked out at 7. In addition, the “Tolerability: Heart rate (-20%)” value in the series with anesthetized rat [4] turned out to be 23 nmols/kg.

As for `CSc1ccc([C@H](O)[C@H](CO)NC(C)c2ccccc2)cc1` (some centres unmarked) [Z. 1414], in the series with anesthetized rat [3] (setting [7]), the ED50 stood at 0.004 µmol/kg. Moreover, in the series on anesthetized rat [4], the “Tolerability: Heart rate (-20%)” value came out at 100 nmols/kg and the Therapeutic index stood at 25.

With `Fc1ccc(C(c2ccc(F)cc2)N2CCN(C/C=C/c3ccccc3)CC2)cc1` [Flunarizine, reference compound], the “ratio between the CaCl2 concentration producing the 50% contraction in presence or in absence of various compounds” value in series [1] (setting [5]) is listed as 16; in series [1] (setting [6]) it was 1. Moreover, the ED50 in the series with anesthetized rat [3] (setting [8]) is 0.00048 µmol/kg.

Consider `COc1ccc(CCC(C)N[C@@H](CO)[C@@H](O)c2ccc(SC)cc2)cc1OC.Cl` (relative stereo) [Z. 1434, (1S,2S)-1-(4-methylthiophenyl)-2-[1-methyl-3-(3,4-dimethoxyphenyl)-propylamino]-1,3propanediol hydrochloride], for which the entries for the “ratio between the CaCl2 concentration producing the 50% contraction in presence or in absence of various compounds” value in series [1] (setting [5]) and in series [1] (setting [6]) were 21 and 5, respectively. Further, in the series on anesthetized rat [3] (setting [7]), the ED50 is 0.00045 µmol/kg. Also, the selectivity ratio in “in vivo” came to 93. Also, in the series on anesthetized rat [4], the “Tolerability: Heart rate (-20%)” value is 42 nmols/kg.

As to `COc1ccc(CCN(C)CCCC(C#N)(c2ccc(OC)c(OC)c2)C(C)C)cc1OC` (centres unmarked) [Verapamil, reference compound], the ED50 in the series on anesthetized rat [2] is 6 µmol/kg; in the series on anesthetized rat [3] (setting [7]), 0.00015 µmol/kg. Also, the “number of protected rats/total number” value in the series with anesthetized rat [2] (dose 4.4 μmols/Kg i.v.) was 2/8; in the series on anesthetized rat [2] (dose 7.7 μmols/Kg i.v.), 5/8; in the series with anesthetized rat [2] (dose 11 μmols/Kg i.v.), 6/8.

On to `CSc1ccc([C@H](O)[C@H](CO)N(C)C(C)CCc2ccccc2)cc1` (some centres unmarked) [Z. 1428], for which the “ratio between the CaCl2 concentration producing the 50% contraction in presence or in absence of various compounds” value was determined as 30 in series [1] (setting [5]) and 2 in series [1] (setting [6]).

On to `CSc1ccc([C@H](O)[C@H](CO)NCC(c2ccccc2)c2ccccc2)cc1` [Z. 1415, (1S,2S)-1-(4-methylthiophenyl)-2-(2,2-diphenylethylamino)-1,3-propanediol], for which the “ratio between the CaCl2 concentration producing the 50% contraction in presence or in absence of various compounds” value in series [1] (setting [5]) amounted to 27; in series [1] (setting [6]) it was 6. In the series on anesthetized rat [3] (setting [7]), the ED50 was 0.0029 µmol/kg. Besides, the selectivity ratio in the series “in vivo” was found to be 17. Further, the “Tolerability: Heart rate (-20%)” value in the series on anesthetized rat [4] was found to be 49 nmols/kg.

For `CC(Cc1ccccc1)NCCC(c1ccccc1)c1ccccc1` (centres unmarked) [Prenylamine, reference compound], the “ratio between the CaCl2 concentration producing the 50% contraction in presence or in absence of various compounds” value in series [1] (setting [5]) was 62; in series [1] (setting [6]), 12. Further, the ED50 in the series on anesthetized rat [3] (setting [7]) is 0.00184 µmol/kg. Further, in “in vivo”, the selectivity ratio is 11. Further, the “Tolerability: Heart rate (-20%)” value in the series with anesthetized rat [4] turned out to be 19 nmols/kg.
